Experimental data taken from article PMC10095950, “Development of Cell Permeable NanoBRET Probes for the Measurement of PLK1 Target Engagement in Live Cells” (Molecules, 2023).
Where two headings read alike, the source gives them in different places.

Legend:
human PLK1 (NLuc-PLK1) = target: T1, human PLK1 (NLuc-PLK1) (Homo sapiens, UniProt P53350); experiment: PLK1 NanoBRET target engagement assay (NLuc-PLK1, N-terminal fusion) in live HEK293 cells; assay type: cell-based
T1 construct: plasmid DNAs encoding N- and C-terminal fusions of full-length PLK1 with NLuc; host or cells: HEK293
Protocol: HEK293 cells (ATCC) were cultured in DMEM (Gibco) + 10% FBS (Seradigm) with incubation in a humidified 37 °C/5% CO2 incubator. N- or C-terminal NLuc/PLK fusions were encoded in pFN31K expression vectors (Promega), including flexible Gly-Ser-Ser-Gly linkers between NLuc and ORFs corresponding to UniProt isoform 1 (PLK1: P53350-1, PLK2: Q9NYY3-1, and PLK3: Q9H4B4-1). Carrier DNA was encoded in pGEM-3Z vectors (Promega). For cellular BRET target engagement experiments, HEK293 cells were transfected with NLuc/PLK fusion constructs using FuGENE HD (Promega) according to the manufacturer’s protocol. […] One part (vol) of FuGENE HD complexes thus formed was combined with 20 parts (vol) of HEK293 cells suspended at a density of 2 × 10^5 per mL, followed by incubation in a humidified 37 °C/5% CO2 incubator for 20 hr.
(§1) To test BRET probes 10 and 11 against PLK1, HEK293 adherent cells were incubated with either NLuc fused to the N-terminus of PLK1 (NLuc-PLK1) or the C-terminus of PLK1 (PLK1-NLuc) using 1 µM of the BRET probe, and mBRET units were measured. […] NLuc-PLK2 and NLuc-PLK3 were tested with both probes 10 and 11 using the same protocol.
To estimate the half-maximal effective concentration (EC50) of probe 11 to PLK1 in cells, adherent HEK293 cells in a 96-well plate expressing the NLuc-PLK1 fusion protein were mixed with an increasing concentration of BRET probe 11. The resulting BRET ratio was fitted to the sigmoidal 4-parameter dose–response curve using Prism 9.0 (GraphPad, Boston MA, USA).

human PLK2 (NLuc-PLK2) = target: T2, human PLK2 (NLuc-PLK2) (Homo sapiens, UniProt Q9NYY3); experiment: PLK2 NanoBRET target engagement assay (NLuc-PLK2) in live HEK293 cells; assay type: cell-based; conditions: HEK293, probe 11 1.0 µM, 2 h; average of two technical replicates ±15%
T2 construct: ORFs corresponding to UniProt isoform 1 (PLK1: P53350-1, PLK2: Q9NYY3-1, and PLK3: Q9H4B4-1); host or cells: HEK293
Protocol: (§2) HEK293 cells (ATCC) were cultured in DMEM (Gibco) + 10% FBS (Seradigm) with incubation in a humidified 37 °C/5% CO2 incubator. N- or C-terminal NLuc/PLK fusions were encoded in pFN31K expression vectors (Promega), including flexible Gly-Ser-Ser-Gly linkers between NLuc and ORFs corresponding to UniProt isoform 1 (PLK1: P53350-1, PLK2: Q9NYY3-1, and PLK3: Q9H4B4-1). Carrier DNA was encoded in pGEM-3Z vectors (Promega). For cellular BRET target engagement experiments, HEK293 cells were transfected with NLuc/PLK fusion constructs using FuGENE HD (Promega) according to the manufacturer’s protocol. Briefly, NLuc/PLK fusion constructs were diluted into Transfection Carrier DNA (Promega) at a mass ratio of 1:9 (mass/mass), after which FuGENE HD was added at a ratio of 1:3 (µg DNA: µL FuGENE HD). One part (vol) of FuGENE HD complexes thus formed was combined with 20 parts (vol) of HEK293 cells suspended at a density of 2 × 10^5 per mL, followed by incubation in a humidified 37 °C/5% CO2 incubator for 20 hr.
as §1

human PLK3 (NLuc-PLK3) = target: T3, human PLK3 (NLuc-PLK3) (Homo sapiens, UniProt Q9H4B4); experiment: PLK3 NanoBRET target engagement assay (NLuc-PLK3) in live HEK293 cells; assay type: cell-based; conditions: HEK293, probe 11 1.0 µM, 2 h; average of two technical replicates ±15%
T3 construct: ORFs corresponding to UniProt isoform 1 (PLK1: P53350-1, PLK2: Q9NYY3-1, and PLK3: Q9H4B4-1); host or cells: HEK293
Protocol: as §2, §1

[1] = tested on: a range of cancer cell lines; parameters: method as in as in column Ref. of Table 1 ([5]-[8],[14],[19]-[21]); conditions: ref as in Table 1 ([5]-[8],[14],[19]-[21]), read-out: Reported Cell Proliferation IC50; cited from earlier work
PLK1 = conditions: ref as in Table 1 ([5],[6],[8],[14],[19],[20],[21]); read-out: Reported Enzyme Inhibition IC50 PLK1; cited from earlier work
PLK1 (PLK1-NLuc) = target: T4, PLK1 (PLK1-NLuc) (Homo sapiens, UniProt P53350); experiment: BRET probe evaluation with NLuc fused to the C-terminus of PLK1 (PLK1-NLuc) in HEK293 cells; assay type: cell-based; conditions: 1 µM probe, PLK1-NLuc (C-terminal fusion), adherent HEK293 cells
T4 construct: plasmid DNAs encoding N- and C-terminal fusions of full-length PLK1 with NLuc; host or cells: HEK293
Protocol: as §2
To test BRET probes 10 and 11 against PLK1, HEK293 adherent cells were incubated with either NLuc fused to the N-terminus of PLK1 (NLuc-PLK1) or the C-terminus of PLK1 (PLK1-NLuc) using 1 µM of the BRET probe, and mBRET units were measured. The combination with the highest mBRET units was selected for further processing. […]

T3 sequence (Q9H4B4 whole entry, canonical isoform): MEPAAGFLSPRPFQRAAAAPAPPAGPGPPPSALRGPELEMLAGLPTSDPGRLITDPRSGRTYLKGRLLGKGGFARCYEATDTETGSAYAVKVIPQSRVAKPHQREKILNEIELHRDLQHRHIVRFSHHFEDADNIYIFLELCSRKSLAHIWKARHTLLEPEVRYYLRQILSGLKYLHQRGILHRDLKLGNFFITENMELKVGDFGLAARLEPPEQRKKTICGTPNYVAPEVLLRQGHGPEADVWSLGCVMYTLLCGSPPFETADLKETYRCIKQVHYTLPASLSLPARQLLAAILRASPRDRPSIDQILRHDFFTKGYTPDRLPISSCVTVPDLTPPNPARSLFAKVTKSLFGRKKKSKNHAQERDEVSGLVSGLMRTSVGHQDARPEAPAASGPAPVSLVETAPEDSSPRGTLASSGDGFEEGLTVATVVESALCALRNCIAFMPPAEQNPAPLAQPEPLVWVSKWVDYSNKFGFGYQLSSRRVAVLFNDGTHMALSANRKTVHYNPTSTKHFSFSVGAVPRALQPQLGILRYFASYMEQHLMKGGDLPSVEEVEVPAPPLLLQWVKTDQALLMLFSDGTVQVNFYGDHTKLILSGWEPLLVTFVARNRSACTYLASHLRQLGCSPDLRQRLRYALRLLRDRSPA
T1 sequence (P53350 whole entry, the tested form may be a part): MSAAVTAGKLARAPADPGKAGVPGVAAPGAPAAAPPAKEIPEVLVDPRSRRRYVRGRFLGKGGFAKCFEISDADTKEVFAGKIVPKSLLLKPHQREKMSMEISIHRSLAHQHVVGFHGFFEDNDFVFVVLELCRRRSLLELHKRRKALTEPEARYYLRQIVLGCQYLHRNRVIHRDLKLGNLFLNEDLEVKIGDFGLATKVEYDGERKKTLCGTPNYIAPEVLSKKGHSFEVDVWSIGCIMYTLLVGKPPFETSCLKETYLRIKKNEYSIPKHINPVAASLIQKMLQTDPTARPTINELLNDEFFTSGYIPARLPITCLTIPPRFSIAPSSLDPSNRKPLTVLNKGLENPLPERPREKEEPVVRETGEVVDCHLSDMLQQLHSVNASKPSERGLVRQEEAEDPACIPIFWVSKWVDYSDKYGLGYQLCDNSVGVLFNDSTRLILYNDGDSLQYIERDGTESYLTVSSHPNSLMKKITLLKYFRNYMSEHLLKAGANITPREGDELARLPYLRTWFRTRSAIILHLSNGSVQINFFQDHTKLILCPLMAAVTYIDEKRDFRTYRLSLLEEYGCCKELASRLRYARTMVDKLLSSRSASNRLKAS
T2 sequence (Q9NYY3 whole entry, canonical isoform): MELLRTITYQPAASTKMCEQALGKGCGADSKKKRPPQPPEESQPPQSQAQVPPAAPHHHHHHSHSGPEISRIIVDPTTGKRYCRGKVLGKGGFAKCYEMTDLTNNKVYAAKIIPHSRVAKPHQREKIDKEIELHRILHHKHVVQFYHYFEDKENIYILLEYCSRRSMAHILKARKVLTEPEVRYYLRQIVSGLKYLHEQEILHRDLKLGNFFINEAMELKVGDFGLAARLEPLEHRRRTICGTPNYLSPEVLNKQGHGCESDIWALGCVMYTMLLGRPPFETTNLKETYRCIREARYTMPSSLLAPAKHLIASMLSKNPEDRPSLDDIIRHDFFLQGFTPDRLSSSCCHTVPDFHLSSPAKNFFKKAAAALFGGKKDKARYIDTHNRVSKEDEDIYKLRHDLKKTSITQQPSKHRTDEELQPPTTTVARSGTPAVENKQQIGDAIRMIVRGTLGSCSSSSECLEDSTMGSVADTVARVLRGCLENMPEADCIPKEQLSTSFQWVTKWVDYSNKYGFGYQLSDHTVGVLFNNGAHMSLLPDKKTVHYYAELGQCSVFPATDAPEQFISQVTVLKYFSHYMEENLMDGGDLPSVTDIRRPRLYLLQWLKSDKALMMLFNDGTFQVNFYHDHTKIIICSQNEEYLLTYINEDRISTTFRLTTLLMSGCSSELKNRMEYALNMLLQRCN
T4 sequence (P53350 whole entry, the tested form may be a part): as the sequence (P53350 whole entry, the tested form may be a part) above

IC50 (human PLK2 (NLuc-PLK2))	IC50 (human PLK3 (NLuc-PLK3))	Compound	IC50 [1]	IC50 (PLK1)	also measured
–	–	CC[C@@H]1C(=O)N(C)c2cnc(Nc3ccc(C(=O)NC4CCNCC4)cc3OC)nc2N1C(C)C [compound 1, (R)-4-((7-ethyl-8-isopropyl-5-methyl-6-oxo-5,6,7,8-tetrahydropteridin-2-yl)amino)-3-methoxy-N-(piperidin-4-yl)benzamide]	–	–	IC50 (human PLK1 (NLuc-PLK1); Probe 11 Conc. 0.1 μM, NLuc-PLK1, ADH format, read-out: apparent IC50): 203 nM; IC50 (human PLK1 (NLuc-PLK1); Probe 11 Conc. 0.2 μM, NLuc-PLK1, ADH format, read-out: apparent IC50): 228 nM; IC50 (human PLK1 (NLuc-PLK1); Probe 11 Conc. 0.4 μM, NLuc-PLK1, ADH format, read-out: apparent IC50): 246 nM; IC50 (human PLK1 (NLuc-PLK1); Probe 11 Conc. 0.6 μM, NLuc-PLK1, ADH format, read-out: apparent IC50): 285 nM; IC50 (human PLK1 (NLuc-PLK1); Probe 11 Conc. 0.8 μM, NLuc-PLK1, ADH format, read-out: apparent IC50): 291 nM; IC50 (human PLK1 (NLuc-PLK1); Probe 11 Conc. 1 μM, NLuc-PLK1, ADH format, read-out: apparent IC50): 316 nM; Kd (human PLK1 (NLuc-PLK1); linearized Cheng–Prusoff analysis, y-intercept of IC50 vs probe 11 concentration, live HEK293 cells, read-out: apparent KD for intracellular target engagement of PLK1): 120 nM
64 nM	1700 nM	CCC1(F)CN(C2CCCC2)c2nc(Nc3ccc(C(=O)NC4CCN(C)CC4)cc3OC)ncc2N(C)C1=O (stereo not drawn) [TPKI-26]	5 nM	–	–
–	–	C[C@@H](Oc1cc(-n2cnc3ccc(CN4CCN(C)CC4)cc32)sc1C(N)=O)c1ccccc1C(F)(F)F [GSK461364]	10 to 100 nM	–	–
45 nM	180 nM	COc1cc(C(=O)NC2CCN(C)CC2)ccc1Nc1ncc2c(n1)N(C1CCCC1)CC(F)(F)C(=O)N2C [Ro3280]	6 to 45 nM	–	–
–	–	CN1CCN(c2ccc(OC(F)(F)F)c(Nc3ncc4c(n3)-c3c(c(C(N)=O)nn3CCO)CC4)c2)CC1 [Onvansertib]	42 nM	[…]	–
–	–	Cc1ncc(CCCN(C)C)cc1Nc1ncc2c(n1)-c1ccc(C(F)(F)F)cc1NC(=S)C2 [MLN0905]	–	2 nM	–
–	–	CC[C@@H]1C(=O)N(C)c2cnc(Nc3ccc(C(=O)NC4CCN(C(=O)CCc5ccc6n5[B-](F)(F)[N+]5=C(c7ccc[nH]7)C=CC5=C6)CC4)cc3OC)nc2N1C(C)C [probe 10, (R)-N-(1-(3-(5,5-difluoro-7-(1H-pyrrol-2-yl)-5H-5^λ,6^λ-dipyrrolo[1,2-c:2’,1’-f][1-3]diazaborinin-3-yl)propanoyl)piperidin-4-yl)-4-((7-ethyl-8-isopropyl-5-methyl-6-oxo-5,6,7,8-tetrahydropteridin-2-yl)amino)-3-methoxybenzamide]	–	–	BRET ratio (human PLK1 (NLuc-PLK1); 1 µM probe, NLuc-PLK1, adherent HEK293 cells): ~ 39; BRET ratio (PLK1 (PLK1-NLuc)): ~ 15
23 nM	59 nM	CC[C@@H]1C(=O)N(C)c2cnc(Nc3ccc(C(=O)N[C@H]4CC[C@H](N5CCN(CC6CC6)CC5)CC4)cc3OC)nc2N1C(C)C [Volasertib]	11 to 37 nM	0.87 nM	IC50 (human PLK1 (NLuc-PLK1); HEK293, probe 11 0.2 µM, 2 h, average of two technical replicates ±15%, read-out: NanoBRET Target Engagement IC50 PLK1): 18 nM
